Measured values as given in US20220073475A1, “5-MEMBERED HETEROARYL COMPOUNDS CONTAINING A HYDROXAMATE MOIETY AND THEIR USE” (UNIVERSITE DE LILLE, priority 2019, published 2022).
Where “and” joins values, the source holds several entries; their conditions need not be identical. Identical values can stand only once.

Test system: OPM2 cells
Assay: CFZ potency increase, ratio of CC50 of CFZ alone / with compound
Assay type: cell-based, human
Text: Human multiple myeloma cells OPM2 (ACC 50, DSMZ) are maintained at 0.3-0.7 10^6 cells/mL in RPMI1640 medium supplemented with GlutaMAX™, 10% fetal bovine serum and 1% penicillin-streptomycin.
We developed a cell-based, high content assay allowing the rapid detection and quantification of apoptotic cells. Caspase-3/7 activity was detected in real-time using the NucView™ 488 Caspase-3 substrate (Biotium), where the caspase-3/7 substrate peptide sequence DEVD is attached to a nucleic acid dye. The NucView™ 488 reagent crosses the plasma membrane to enter the cytoplasm, where the dye is unable to bind to DNA and remains non-fluorescent. Once the substrate has been cleaved by activated caspase-3/7 in apoptotic cells, the high-affinity DNA dye is released and migrates to the cell nucleus to stain the nucleus with a bright green fluorescence. All cell nuclei were also labeled with Hoechst 33342 (Ozyme).
For OPM2, briefly, nanoliters of compound and cytotoxic agent in DMSO stock solutions were first transferred and combined in 384-microtiter well plate using an Echo555 liquid handler (Labcyte). The exact volume of each solution to be transferred was calculated to achieve subsequently the target concentration in the 70 μL volume incubate. Final DMSO content was maintained at 0.2%. Then, 70 μL of cells treated with 1 μM NucView™ 488 and 20 ng/mL Hoechst 33342 were distributed to the plates to obtain a final density of 12,000 cells per well. The microplates were incubated at 37° C. and 5% CO2 in an automated LiCONiC STR240 UB cell incubator, and images were acquired at various times at 405 nm and 488 nm with the high-resolution automated confocal microscope INCell 6000 (GE). Four fields per well were read with the 20× objective in a confocal mode. The BioCel workstation was managed by VWorks automation control software
For all cells, Columbus software (Perkin) was used for image quantification and analysis. First, Hoechst 33342 staining was used for an automated detection of nuclei, in which the mean fluorescence intensity for NucView™ 488 was quantified. Inspection of control cells at initial time was used to set a threshold level of NucView™ 488 fluorescence to separate non apoptotic cells from apoptotic cells. Finally, for each well, the result was expressed as percentage of apoptotic cells in the total cell population. CC50 values were calculated from concentration-response curves by a nonlinear regression analysis at four parameters using Excel Fit or GraphPad Prim softwares.
Activity=(% of apoptotic cells with cytotoxic agent in combination with compound of the invention)/(% of apoptotic cells with cytotoxic agent alone). • Ratio of CC50: The CC50 of the cytotoxic agent was calculated in absence and in presence of a compound of the invention.
Activity=(CC50 of agent alone)/(CC50 of agent with compound). • Ratio of AUC. Activity=(Area of the dose-concentration curve of cytotoxic agent combined with one concentration of compound)/(Area of the dose-concentration curve of cytotoxic agent alone). (Lehar J. et al, 2008 (molecular systems biology 4:215)).

[1] = OPM2, compound at 7.5 μM (Table 5)

Structure (SMILES): O=C(C[C@@H](Cc1cnc2ccccc2c1)n1cc(CNC(=O)c2ccc(F)c(F)c2)nn1)NO [Compound 143, (R)-3,4-difluoro-N-((1-(4-(hydroxyamino)-4-oxo-1-(quinolin-3-yl)butan-2-yl)-1H-1,2,3-triazol-4-yl)methyl)benzamide]
- Activity: ratio (CC50 of CFZ alone)/(CC50 of CFZ in combination with compound of the invention) [1]: 1.1

Structure (SMILES): O=C(C[C@@H](Cc1c[nH]c2ccccc12)n1cc(C(Cc2ccc(O)cc2)NC(=O)c2ccc(F)c(F)c2)nn1)NO (stereo partly drawn) [Compound 146, 3,4-Difluoro-N-[1-[1-[(1R)-3-(hydroxyamino)-1-(1H-indol-3-ylmethyl)-3-oxo-propyl]triazol-4-yl]-2-(4-hydroxyphenyl)ethyl]benzamide]
- Activity: ratio (CC50 of CFZ alone)/(CC50 of CFZ in combination with compound of the invention) [1]: 1.4

Structure (SMILES): CC(NC(=O)c1ccc(F)cc1)c1cn([C@@H](CC(=O)NO)Cc2ccc3ccccc3c2)nn1 (stereo partly drawn) [Compound 164, 4-fluoro-N-(1-(1-((R)-4-(hydroxyamino)-1-(naphthalen-2-yl)-4-oxobutan-2-yl)-1H-1,2,3-triazol-4-yl)ethyl)benzamide]
- Activity: ratio (CC50 of CFZ alone)/(CC50 of CFZ in combination with compound of the invention) [1]: 2.0

Structure (SMILES): O=C(C[C@@H](Cc1ccc2c(c1)CCCC2)n1cc(CNC(=O)c2ccc(F)cc2)nn1)NO [Compound 165, (R)-4-fluoro-N-((1-(4-(hydroxyamino)-4-oxo-1-(5,6,7,8-tetrahydronaphthalen-2-yl)butan-2-yl)-1H-1,2,3-triazol-4-yl)methyl)benzamide]
- Activity: ratio (CC50 of CFZ alone)/(CC50 of CFZ in combination with compound of the invention) [1]: 1.9

Structure (SMILES): CN(Cc1cn([C@@H](CC(=O)NO)Cc2ccc3c(c2)CCCC3)nn1)C(=O)c1ccc(F)cc1 [Compound 166, (R)-4-fluoro-N-((1-(4-(hydroxyamino)-4-oxo-1-(5,6,7,8-tetrahydronaphthalen-2-yl)butan-2-yl)-1H-1,2,3-triazol-4-yl)methyl)-N-methylbenzamide]
- Activity: ratio (CC50 of CFZ alone)/(CC50 of CFZ in combination with compound of the invention) (OPM2, compound at a concentration of 3.7 μM (Table 5, footnote b)): 2.1

Structure (SMILES): CC(NC(=O)c1ccc(F)cc1)c1cn([C@@H](CC(=O)NO)Cc2ccc3c(c2)CCCC3)nn1 (stereo partly drawn) [Compound 167, 4-fluoro-N-(1-(1-((R)-4-(hydroxyamino)-4-oxo-1-(5,6,7,8-tetrahydronaphthalen-2-yl)butan-2-yl)-1H-1,2,3-triazol-4-yl)ethyl)benzamide]
- Activity: ratio (CC50 of CFZ alone)/(CC50 of CFZ in combination with compound of the invention) [1]: 2.5

Structure (SMILES): O=C(C[C@@H](Cc1ccc2cccnc2c1)n1cc(CNC(=O)c2ccc(F)c(F)c2)nn1)NO [Compound 170, (R)-3,4-difluoro-N-((1-(4-(hydroxyamino)-4-oxo-1-(quinolin-7-yl)butan-2-yl)-1H-1,2,3-triazol-4-yl)methyl)benzamide]
- Activity: ratio (CC50 of CFZ alone)/(CC50 of CFZ in combination with compound of the invention) [1]: 1.5

Structure (SMILES): O=C(C[C@@H](Cc1ccc2c(c1)CCC(=O)N2)n1cc(CNC(=O)c2ccc(F)c(F)c2)nn1)NO [Compound 171, (R)-3,4-difluoro-N-((1-(4-(hydroxyamino)-4-oxo-1-(2-oxo-1,2,3,4-tetrahydroquinolin-6-yl)butan-2-yl)-1H-1,2,3-triazol-4-yl)methyl)benzamide]
- Activity: ratio (CC50 of CFZ alone)/(CC50 of CFZ in combination with compound of the invention) [1]: 1.2

Structure (SMILES): CC(NC(=O)c1ccc(F)cc1)c1cn([C@@H](CC(=O)NO)Cc2ccc3c(c2)C(C)(C)CCC3(C)C)nn1 (stereo partly drawn) [Compound 172, 4-fluoro-N-(1-(1-((R)-4-(hydroxyamino)-4-oxo-1-(5,5,8,8-tetramethyl-5,6,7,8-tetrahydronaphthalen-2-yl)butan-2-yl)-1H-1,2,3-triazol-4-yl)ethyl)benzamide]
- Activity: ratio (CC50 of CFZ alone)/(CC50 of CFZ in combination with compound of the invention) [1]: 3.9

Structure (SMILES): O=C(C[C@@H](Cc1ccc2sccc2c1)n1cc(CNC(=O)c2ccc(F)cc2)nn1)NO [Compound 173, (R)—N-((1-(1-(benzo[b]thiophen-5-yl)-4-(hydroxyamino)-4-oxobutan-2-yl)-1H-1,2,3-triazol-4-yl)methyl)-4-fluorobenzamide]
- Activity: ratio (CC50 of CFZ alone)/(CC50 of CFZ in combination with compound of the invention) [1]: 2.1

Structure (SMILES): O=C(C[C@@H](Cc1ccc2ccsc2c1)n1cc(CNC(=O)c2ccc(F)cc2)nn1)NO [Compound 174, (R)—N-((1-(1-(benzo[b]thiophen-6-yl)-4-(hydroxyamino)-4-oxobutan-2-yl)-1H-1,2,3-triazol-4-yl)methyl)-4-fluorobenzamide]
- Activity: ratio (CC50 of CFZ alone)/(CC50 of CFZ in combination with compound of the invention) [1]: 2.0 and 1.5

Structure (SMILES): O=C(C[C@@H](Cc1ccc2cc[nH]c2c1)n1cc(CNC(=O)c2ccc(F)cc2)nn1)NO [Compound 176, (R)-4-fluoro-N-((1-(4-(hydroxyamino)-1-(1H-indol-6-yl)-4-oxobutan-2-yl)-1H-1,2,3-triazol-4-yl)methyl)benzamide]
- Activity: ratio (CC50 of CFZ alone)/(CC50 of CFZ in combination with compound of the invention) [1]: 1.3

Structure (SMILES): Cn1ccc2cc(C[C@H](CC(=O)NO)n3cc(CNC(=O)c4ccc(F)cc4)nn3)ccc21 [Compound 177, (R)-4-fluoro-N-((1-(4-(hydroxyamino)-1-(1-methyl-1H-indol-5-yl)-4-oxobutan-2-yl)-1H-1,2,3-triazol-4-yl)methyl)benzamide]
- Activity: ratio (CC50 of CFZ alone)/(CC50 of CFZ in combination with compound of the invention) [1]: 1.7

Structure (SMILES): O=C(C[C@@H](Cc1ccc2ncsc2c1)n1cc(CNC(=O)c2ccc(F)c(F)c2)nn1)NO [Compound 178, (R)—N-((1-(1-(benzo[d]thiazol-6-yl)-4-(hydroxyamino)-4-oxobutan-2-yl)-1H-1,2,3-triazol-4-yl)methyl)-3,4-difluorobenzamide]
- Activity: ratio (CC50 of CFZ alone)/(CC50 of CFZ in combination with compound of the invention) [1]: 1.3

Structure (SMILES): O=C(C[C@@H](Cc1csc2ccccc12)n1cc(CNC(=O)c2ccc(F)c(F)c2)nn1)NO [Compound 179, (R)—N-((1-(1-(benzo[b]thiophen-3-yl)-4-(hydroxyamino)-4-oxobutan-2-yl)-1H-1,2,3-triazol-4-yl)methyl)-3,4-difluorobenzamide]
- Activity: ratio (CC50 of CFZ alone)/(CC50 of CFZ in combination with compound of the invention) [1]: 1.6

Structure (SMILES): O=C(C[C@@H](Cc1csc2ccccc12)n1cc(CNC(=O)c2ccc(F)cc2)nn1)NO [Compound 180, (R)—N-((1-(1-(benzo[b]thiophen-3-yl)-4-(hydroxyamino)-4-oxobutan-2-yl)-1H-1,2,3-triazol-4-yl)methyl)-4-fluorobenzamide]
- Activity: ratio (CC50 of CFZ alone)/(CC50 of CFZ in combination with compound of the invention) [1]: 1.8

Structure (SMILES): CC(NC(=O)c1ccc(F)cc1)c1cn([C@@H](CC(=O)NO)Cc2csc3ccccc23)nn1 (stereo partly drawn) [Compound 181, N-(1-(1-((R)-1-(benzo[b]thiophen-3-yl)-4-(hydroxyamino)-4-oxobutan-2-yl)-1H-1,2,3-triazol-4-yl)ethyl)-4-fluorobenzamide]
- Activity: ratio (CC50 of CFZ alone)/(CC50 of CFZ in combination with compound of the invention) [1]: 1.9

Structure (SMILES): O=C(C[C@@H](Cc1cc2ccccc2s1)n1cc(CNC(=O)c2ccc(F)cc2)nn1)NO [Compound 182, (S)—N-((1-(1-(benzo[b]thiophen-2-yl)-4-(hydroxyamino)-4-oxobutan-2-yl)-1H-1,2,3-triazol-4-yl)methyl)-4-fluorobenzamide]
- Activity: ratio (CC50 of CFZ alone)/(CC50 of CFZ in combination with compound of the invention) [1]: 2.7

Structure (SMILES): O=C(C[C@@H](Cc1ccc2c(c1)OCCO2)n1cc(CNC(=O)c2ccc(F)c(F)c2)nn1)NO [Compound 183, (R)—N-((1-(1-(2,3-dihydrobenzo[b][1,4]dioxin-6-yl)-4-(hydroxyamino)-4-oxobutan-2-yl)-1H-1,2,3-triazol-4-yl)methyl)-3,4-difluorobenzamide]
- Activity: ratio (CC50 of CFZ alone)/(CC50 of CFZ in combination with compound of the invention) [1]: 1.2
